Measured values reported in patent US7510825B2, “Kits and methods for detection of apoptotic cells” (NST NeuroSurvival Technologies Ltd, priority 2000, dated 2009).

Assays:
[1] = system: epithelial cells of the small intestine; test: Detection by DDC of apoptosis in small intestine epithelial cells following chemotherapy; type: in vivo, mice; settings: 48 hr following Cyclophosphamide and Taxol chemotherapy
Procedure: A. Administration of DDC in-vivo: Injection of 200 μl of DDC intravenously. Following 1-2 hours, animal is sacrificed, and the desired organ is placed in a test tube or on a small plate, suitable for liquid nitrogen freezing. The plate is then covered with an aluminum foil, and transferred to liquid nitrogen. Following 5-30 minutes the specimen is being frozen to −80° C. and kept at −80° C. for at least 16 hr. B. Analysis of the Specimen: • a. Whole organ imaging Ex-vivo whole organ fluorescence imaging may be carried out on freshly excised specimen, that can be analyzed under a stereomicroscope (such as Leica MZ FL III, Leica Switzerland). […] Emitted fluorescence can be imaged using appropriate camera and software, such as a Leica DC 300F Distal camera and images can be processed and analyzed by Leica QWin Lite software. • b. […] Analysis of the tissue sections can be performed using a fluorescence microscope with a UV filter characterized by excitation at 360-370 nm (band pass) and emission at 420 nm (barrier filter) In case that staining of the examined tissue is desired, the following procedures can be applied:
Chemotherapy treatment is not selective to tumor cells, but can also affect other organs/tissue within the body as a side effect. […] Such side effects may be detected by DDC in the small intestine, in which the epithelial cells are affected by the chemotherapy. […]

[2] = system: neurons of the ischemic region; test: Detection by DDC of permanent ischemia by MCA cauterization; type: in vivo, mice; settings: DDC i.v. 22 hours from the insult; adjacent slides
Procedure: (§1) A. Administration of DDC in-vivo: Injection of 200 μl of DDC intravenously. Following 1-2 hours, animal is sacrificed, and the desired organ is placed in a test tube or on a small plate, suitable for liquid nitrogen freezing. The plate is then covered with an aluminum foil, and transferred to liquid nitrogen. Following 5-30 minutes the specimen is being frozen to −80° C. and kept at −80° C. for at least 16 hr. B. Analysis of the Specimen: • a. Whole organ imaging Ex-vivo whole organ fluorescence imaging may be carried out on freshly excised specimen, that can be analyzed under a stereomicroscope (such as Leica MZ FL III, Leica Switzerland). DDC may be visualized using 360cx and >420cm nm filter set. Emitted fluorescence can be imaged using appropriate camera and software, such as a Leica DC 300F Distal camera and images can be processed and analyzed by Leica QWin Lite software. • b. Histological analysis, from the frozen organ or tissue, 4 μm cryosections are prepared on slides. Analysis of the tissue sections can be performed using a fluorescence microscope with a UV filter characterized by excitation at 360-370 nm (band pass) and emission at 420 nm (barrier filter) In case that staining of the examined tissue is desired, the following procedures can be applied:
A permanent ischemia by MCA cauterization was induced in Balb/c mice (Harlan laboratories). […]

cardiomyocytes = test: Focal uptake of DDC in heart following sepsis (CLP); type: in vivo, mice; settings: 24 h after cecal ligature and perforation
Procedure: as §1
The cecum of anesthetized mice was isolated, ligated distal to the ileocaecal valve, and punctured twice with 26-gauge needle. […]

[3] = system: Jurkat cells (T-cell leukemia, human); test: Binding of DDC and PI to Jurkat cells treated with anti-Fas antibody, FACS; type: cell-based; settings: anti-Fas antibody 0.1 μg/ml for 180 minutes
Procedure: a. Non Adherent Cells • 1. Inducing cells to undergo apoptosis. A negative control should be prepared by incubating cells in the absence of apoptosis induction agent. • 2. Washing the cells and adjusting the number of cells to 1×10^7/ml in PBS. • 3. Transferring 30 μl from the cell suspension to a suitable test tube for FACS analysis. • 4. Adding 260 μl of PBS and 5 μl of DDC to the tube and incubating for 15 minutes at room temperature (RT), protected from light. • 5. Adding 5 μl of Propidium Iodide (PI) and perform FACS analysis.
Analyzing DDC accumulation by flow cytometry using FACS apparatus that includes a UV laser. For DDC analysis: the UV detector excitation is at 356 nm and the emission is at 530 nm with a band pass of […]. […] The population should be separated into three groups: live cells will show a low level of fluorescence (background), apoptotic cells will show higher UV fluorescence and necrotic cells will show both red and higher UV fluorescence.
Jurkat cells (T-cell leukemia, human) were treated with anti-Fas antibody (0.1 μg/ml) for 180 minutes, Following incubation the cells were washed and stained with DDC (as detailed in DDC protocols, IIIA). […] Following incubation with anti-Fas antibody, most of the cells shifted to the lower right section (AII, EA) of higher fluorescence value, indicating increased staining with DDC. […]

red blood cells (RBC) = test: Selective binding of DDC to activated red blood cells, flow cytometry; type: cell-based; settings: DDC 500 μM
Procedure: Activation of intact RBC, was induced by a combined treatment with N-ethylmaleimide (NEM) and calcium ionophore, in the presence of Ca 2+.
Fresh RBC were obtained, diluted to 0.1 of their initial volume with buffer A (143 mM NaCl; 2 mM KCl; 0.1% Glucose; 10 mM NaH2PO4; pH=7.4), and washed 4 times in the above buffer. Cells were then re-suspended in buffer B (55 mM NaCl; 90 mM KCl, 0.1% glucose, 10 mM HEPES; pH=7.4). These cells were thereafter used as control cells. For activation, the cells were treated for 15-60 min at 37° C. with a combination of 2 mM CaCl, 5 μM of the Calcium ionophore A23187 and 5 mm of NEM. Cells were then washed twice with buffer B containing 0.1% of bovine serum albumin, and finally re-suspended in Buffer B containing 2 mM CaCl2 For examination of binding of DDC to the cells, DDC was dissolved in 0.1M NaPPi, pH=7.4, at a stock concentration of 1 mM. Binding assays were performed at a final concentration of 500 μM, and level of binding was evaluated by flow cytometry.

Structure (SMILES): CN(C)c1cccc2c(S(=O)(=O)NC(CSSCC(NS(=O)(=O)c3cccc4c(N(C)C)cccc34)C(=O)O)C(=O)O)cccc12 (stereo not drawn) [DDC]
- uptake of DDC into single epithelial cells [1]: increased uptake
- correlation of DDC staining of single neurons with H&E staining [2]: high correlation with H&E staining
- fluorescence of DDC in cardiomyocytes following sepsis (cardiomyocytes): can be seen in single cardiomyocites
- fluorescence (DDC accumulation) of treated versus control cells [3]: marked shift of fluorescence
- staining of red blood cells with DDC (red blood cells (RBC); RBC activated by NEM, calcium ionophore A23187 and Ca2+): substantial shift to higher fluorescence levels
- staining of red blood cells with DDC (red blood cells (RBC); intact RBC): did not stain significantly
